According to patent US9902759B2, “BH3 peptides and methods of use thereof” (Dana-Farber Cancer Institute, Inc., priority 2002, dated 2018):
Ends that are not written are not given here.

Assays:
GST-BCL-2 [1] = target: T1, GST-BCL-2 (Homo sapiens, UniProt P10415); assay: BH3 peptide displacement from GST-BCL-2 by fluorescence polarization; assay type: binding; settings: for IC50: read-out: IC50 (nM), BID Displacement
T1 construct: a GST-BCL-2 fusion protein lacking the C-terminal transmembrane domain was utilized; made in house; host or cells: E. coli BL21 DE3
T1 sequence (P10415 1-218 limits assumed): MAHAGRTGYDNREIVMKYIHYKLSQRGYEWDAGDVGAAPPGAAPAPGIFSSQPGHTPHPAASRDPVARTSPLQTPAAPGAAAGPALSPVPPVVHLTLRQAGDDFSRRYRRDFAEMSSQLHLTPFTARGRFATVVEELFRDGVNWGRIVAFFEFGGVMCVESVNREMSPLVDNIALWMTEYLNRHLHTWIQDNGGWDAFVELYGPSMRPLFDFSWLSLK
Text: (§1) To determine Kd for peptide binding to BCL-2, a GST-BCL-2 fusion protein lacking the C-terminal transmembrane domain was utilized. Peptides were synthesized with a fluorescein amino-terminus using an AHA linker. […] An increase in fluorescence polarization measured on a Perkin-Elmer LS 50B luminescence spectrophotometer was quantitated to calculate binding. A non-linear fit to a sigmoidal dose-response curve utilized the program Origin 6.0 to determine Kd. […] Data were fitted to a sigmoidal curve as above, and IC50 determined.
(§2) GST-BCL-2δC21 fusion proteins were induced in BL21 DE3 by 0.1 mM IPTG. The bacterial pellets were resuspended in lysis buffer (1 mg/ml lysozyme/1% Triton X-100/0.1 mg/ml PMSF/2 μg/ml aprotinin/2 μg/ml leupeptine/1 μg/ml pepstatin A in PBS) and sonicated. After centrifugation at 20,000×g for 20 min, the supernatant was applied to glutathione-agarose beads (Sigma). The beads were washed with PBS and treated with 50 mM glutathione/50 mM TrisHCl, pH8.0 to elute protein. Eluate was dialyzed against binding buffer and concentrated using Amicon centrifugal concentrating devices.

mitochondria = assay: Cytochrome c release from isolated mitochondria (ELISA); assay type: biochemical, mouse; settings: for cytochrome c release by peptide or protein alone: BIDBH3 at 10 μM, other concentrations not stated
Method: (§3) Mouse liver mitochondria were isolated from age-matched wt or Bak −/− mice. Livers were diced, subjected to Dounce rotary Teflon pestle disruption, then homogenized using a Kinematica Polytron homognizer. Following suspension in isolation buffer (250 mM sucrose, 10 mM Tris-HCl pH 7.4, 0.1 mM EGTA), mitochondria were isolated by differential centrifugation steps, followed by two washes in isolation buffer. Mitochondria from FL5.12 cells were isolated by cell disruption followed by differential centrifugation and washing as above. Cell disruption was performed either by a Kinematika Polytron homogenizer or by a combination of Dounce homogenization followed by 6-10 expulsions through a 27 gauge needle.
(§4) Mitochondria at a protein concentration of 0.5 mg/ml were treated at room temperature in experimental buffer (125 mM KCl, 10 mM Tris-MOPS pH 7.4, 5 mM glutamate, 2.5 mM malate, 1 mM KPO4, 10 µM EGTA-Tris pH 7.4). Percent release was quantitated using a colorimetric ELISA (MCTC0, R&D Systems). In all experiments, treatments with DMSO were used as a control for solvent activity.

[2] = tested on: BCL-2 overexpressing mitochondria; assay: Cytochrome c release from BCL-2 overexpressing FL5.12 mitochondria; assay type: biochemical; settings: for capacity to overcome BCL-2 protection: with subliminal myrBID (30 nM); for cytochrome c release from mitochondria with overexpressed BCL-2, agent alone: 10 μM BIDBH3, 1 μM BIMBH3, 30 nM myrBID
Method: as §3, §4

GST-BCL-2 [3] = target: T1, GST-BCL-2; assay: Fluorescence polarization binding of fluoresceinated BH3 peptides to GST-BCL-2; settings: for Kd: 25 nM fluoresceinated peptide, GST-BCL-2 titration, 37° C., read-out: Kd (nM), BCL-2 Binding
Text: as §1, §2

BAX = target: T2, BAX (Mus musculus, UniProt Q07813); assay: BAX oligomerization in mitochondria from FL5.12 cells, BMH cross-linking; assay type: biochemical; settings: 100 μM peptide
T2 construct: mitochondria isolated from cultured FL5.12 cells, which contain both BAX and BAK; endogenous in cells; host or cells: mitochondria isolated from FL5.12 cells
T2 sequence (Q07813 whole entry): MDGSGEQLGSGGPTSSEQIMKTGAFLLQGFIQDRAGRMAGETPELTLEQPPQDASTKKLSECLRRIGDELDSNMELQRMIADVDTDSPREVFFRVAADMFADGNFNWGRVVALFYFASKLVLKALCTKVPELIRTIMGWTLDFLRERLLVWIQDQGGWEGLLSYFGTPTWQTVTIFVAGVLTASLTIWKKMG
Method: (§5) 1,6-Bismaleimidohexane was obtained from Pierce (#22330). A 10 mM stock solution in DMSO was added to treated mitochondrial suspensions at a 1:11 dilution. Cross-linking took place for 30 minutes at room temperature, followed by centrifugation to pellet mitochondria. Pellets were dissolved in NuPAGE loading buffer (Invitrogen).
(§6) Antibodies used for immunoblot analysis included anti-cytochrome c (75981A, Pharmingen), anti-BAK (Upstate Biotechnology), and anti-BAX (N-20, Santa Cruz). Antibody detection was accomplished using enhanced chemiluminescence (Western Lightning, Perkin-Elmer).

BAK = target: T3, BAK (Mus musculus, UniProt O08734); assay: BAK oligomerization, BMH cross-linking and immunoblot; assay type: biochemical; settings: 100 μM peptide, cross-linker BMH
T3 construct: capable of inducing an allosteric change in mitochondrial-resident BAK or BAX; from tissue
T3 sequence (O08734 1-209): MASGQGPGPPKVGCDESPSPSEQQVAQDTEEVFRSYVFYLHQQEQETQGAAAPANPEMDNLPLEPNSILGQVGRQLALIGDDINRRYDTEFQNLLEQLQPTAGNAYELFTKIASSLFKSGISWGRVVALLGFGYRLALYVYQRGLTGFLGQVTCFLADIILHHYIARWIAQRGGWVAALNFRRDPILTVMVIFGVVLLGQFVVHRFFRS
Method: as §5, §6

[4] = Circular dichroism, α-helical content; assay type: physicochemical; settings: CD, 50 mM potassium phosphate pH 7, 20° C.
Method: Circular dichroism (CD) spectra were obtained on a Jasco J-710 spectropolarimeter at 20° C. using the following standard measurement parameters: wavelength, 190-260 nm; step resolution, 0.5 nm; speed, 20 nm/sec; accumulations, 10; response, 1 sec; band width, 1 nm; path length, 0.1 cm. Stock solutions of peptide were dissolved in deionized water and concentrations determined by amino acid analysis. Samples were then diluted in 50 mM potassium phosphate pH 7 to a calculated final concentration of 50 μM. The CD spectrum of each sample was measured in triplicate and a background spectrum of diluent alone was subtracted. For comparison, the subtracted CD spectra were normalized to 35 μM based on repeat peptide concentration determination by amino acid analysis of the diluted peptide solutions. The α-helical content of each peptide was calculated by dividing the mean residue ellipticity [q]222obs by the reported [q]222obs for a model helical decapeptide (Yang et al., 1986).

CSCC[C@H](NC(=O)[C@H](CCCNC(=N)N)NC(=O)[C@H](CCCNC(=N)N)NC(=O)[C@H](CC(C)C)NC(=O)[C@H](CCC(=O)O)NC(=O)[C@H](CCCNC(=N)N)NC(=O)CNC(=O)[C@H](Cc1ccc(O)cc1)NC(=O)[C@H](CCCNC(=N)N)NC(=O)[C@H](CCC(N)=O)NC(=O)[C@H](C)NC(=O)[C@H](C)NC(=O)[C@H](Cc1c[nH]c2ccccc12)NC(=O)[C@H](CC(C)C)NC(=O)[C@@H](N)CC(N)=O)C(=O)N[C@@H](CO)C(=O)N[C@@H](CC(=O)O)C(=O)N[C@@H](CCC(=O)O)C(=O)N[C@@H](Cc1ccccc1)C(=O)N[C@H](C(=O)N[C@@H](CC(=O)O)C(=O)N[C@@H](CO)C(=O)N[C@@H](Cc1ccccc1)C(=O)N[C@@H](CCCCN)C(=O)N[C@@H](CCCCN)C(=O)O)C(C)C [BADBH3]
displacement of BIDBH3 from BCL-2 (GST-BCL-2 [1]): can efficiently displace pre-bound BIDBH3 peptide from BCL-2
cytochrome c release by peptide or protein alone (mitochondria): inactive in this assay
cytochrome c release by peptide alone (mitochondria; even at 100 μM): cannot activate BAK or release cytochrome c
restoration of cytochrome c release to BIDBH3 and BIMBH3 ([2]; 100 μM BADBH3): to levels observed for wt mitochondria
restoration of sensitivity to myrBID ([2]; 200 μM BADBH3): markedly restores their sensitivity to even 1 nM myrBID
lowest concentration with measurable activity in inhibiting BCL-2 and enabling cytochrome c release by myrBID ([2]; FL5.12-BCL-2 mitochondria): 1 µM
capacity to overcome BCL-2 protection [2]: most prominently demonstrates the capacity to overcome BCL-2 protection
affinity for BCL-2 relative to BIDBH3 peptide (GST-BCL-2 [3]): approximately 5 fold
oligomerization of BAX (BAX): not
BAK oligomerization (BAK): unable to induce BAK oligomerization
% Helicity (222 nm) [4]: 23.9%

CC[C@H](C)[C@H](NC(=O)[C@H](CC(N)=O)NC(=O)[C@H](CCCNC(=N)N)NC(=O)[C@@H](NC(=O)[C@@H](NC(=O)[C@H](CC(=O)O)NC(=O)[C@@H](N)CCC(=O)O)[C@@H](C)CC)[C@@H](C)CC)C(=O)N[C@@H](C)C(=O)N[C@@H](CCCNC(=N)N)C(=O)N[C@@H](Cc1c[nH]cn1)C(=O)N[C@@H](CC(C)C)C(=O)N[C@@H](C)C(=O)N[C@@H](CCC(N)=O)C(=O)N[C@H](C(=O)NCC(=O)N[C@@H](CC(=O)O)C(=O)N[C@@H](CO)C(=O)N[C@@H](CCSC)C(=O)N[C@@H](CC(=O)O)C(=O)N[C@@H](CCCNC(=N)N)C(=O)O)C(C)C [BIDBH3]
displacement of BADBH3 from BCL-2 (GST-BCL-2 [1]): does not effectively displace BADBH3 from BCL-2
concentration required for near total release of cytochrome c (mitochondria): 10 µM
cytochrome c release, Bak +/+ vs. −/− mitochondria (mitochondria; 100 μM peptide, liver mitochondria): BAK is required for the release of cytochrome c
cytochrome c release by peptide or protein alone (mitochondria): capable of initiating cytochrome c release
cytochrome c release from mitochondria with overexpressed BCL-2, agent alone [2]: failing to release cytochrome c
oligomerization of BAX (BAX): could also induce oligomerization of BAX
BAK oligomerization (BAK): induces BAK oligomerization
% Helicity (222 nm) [4]: 19.5%

CC[C@H](C)[C@H](NC(=O)[C@H](CS)NC(=O)[C@H](C)NC(=O)[C@H](CC(C)C)NC(=O)[C@H](CCCNC(=N)N)NC(=O)[C@H](CC(C)C)NC(=O)[C@H](C)NC(=O)[C@H](CC(C)C)NC(=O)[C@H](C)NC(=O)[C@H](CC(=O)O)NC(=O)[C@H](CO)NC(=O)CNC(=O)[C@H](CCC(=O)O)NC(=O)[C@@H](N)CCSC)C(=O)NCC(=O)N[C@@H](CC(=O)O)C(=O)N[C@@H](CCC(=O)O)C(=O)N[C@@H](CCSC)C(=O)N[C@@H](CC(=O)O)C(=O)N[C@H](C(=O)O)C(C)C [BIKBH3]
displacement of BIDBH3 from BCL-2 (GST-BCL-2 [1]): demonstrate the ability to displace BIDBH3
IC50 (GST-BCL-2 [1]): 4920 nM
restoration of cytochrome c release by myrBID ([2]; 100 μM BIKBH3): restore near-total cytochrome c release
capacity to overcome BCL-2 protection [2]: significant, but lesser, potency
Kd (GST-BCL-2 [3]): 485 nM
% Helicity (222 nm) [4]: 8.5%

CC[C@H](C)[C@H](NC(=O)[C@H](CCCCN)NC(=O)[C@H](CCCNC(=N)N)NC(=O)[C@H](CC(C)C)NC(=O)[C@H](CCC(N)=O)NC(=O)[C@H](C)NC(=O)[C@H](C)NC(=O)[C@H](Cc1ccccc1)NC(=O)[C@H](CCC(=O)O)NC(=O)[C@@H]1CCCN1C(=O)[C@@H]1CCCN1C(=O)[C@H](CC(C)C)NC(=O)[C@H](CCC(=O)O)NC(=O)[C@H](C)N)C(=O)NCC(=O)N[C@@H](CC(=O)O)C(=O)N[C@@H](CCCCN)C(=O)N[C@H](C(=O)N[C@@H](Cc1ccc(O)cc1)C(=O)N[C@@H](CS)C(=O)O)C(C)C [NOXAABH3]
displacement of BIDBH3 from BCL-2 (GST-BCL-2 [1]): did not bind detectably to BCL-2 or displace BIDBH3 from BCL-2
binding to BCL-2 (GST-BCL-2 [3]): did not bind detectably
% Helicity (222 nm) [4]: 5.1%

CC[C@H](C)[C@H](NC(=O)[C@H](CCCNC(=N)N)NC(=O)[C@H](CCCNC(=N)N)NC(=O)[C@H](CC(C)C)NC(=O)[C@H](CCC(N)=O)NC(=O)[C@H](C)NC(=O)[C@H](CS)NC(=O)[C@H](CCC(=O)O)NC(=O)[C@H](CC(=O)O)NC(=O)[C@H](CCCCN)NC(=O)[C@H](CC(C)C)NC(=O)[C@H](CC(=O)O)NC(=O)[C@H](C)NC(=O)[C@@H]1CCCN1)C(=O)NCC(=O)N[C@@H](CC(=O)O)C(=O)N[C@@H](CCCCN)C(=O)N[C@H](C(=O)N[C@@H](CC(N)=O)C(=O)N[C@@H](CC(C)C)C(=O)O)C(C)C [NOXABBH3]
displacement of BIDBH3 from BCL-2 (GST-BCL-2 [1]): did not bind detectably to BCL-2 or displace BIDBH3 from BCL-2
binding to BCL-2 (GST-BCL-2 [3]): did not bind detectably
% Helicity (222 nm) [4]: 11.6%

VIPMAAVKQALREAGDEFEL [BCLXBH3]
IC50 (GST-BCL-2 [1]): > 30000 nM
Kd (GST-BCL-2 [3]): > 1000 nM

B1: myrBID: recombinant p7/myrp15, myristoylated BID complex (protein, UniProt P55957 1-195, looked up)
BH3-interacting domain death …: MDCEVNNGSSLRDECITNLLVFGFLQSCSDNSFRRELDALGHELPVLAPQWEGYDELQTDGNRSSHSRLGRIEADSESQEDIIRNIARHLAQVGDSMDRSIPPGLVNGLALQLRNTSRSEEDRNRDLATALEQLLQAYPRDMEKEKTMLVLALLLAKKVASHTPSLLRDVFHTTVNFINQNLRTYVRSLARNGMD
modifications: myristoylated; p7/p15 cleaved complex
concentration required for near total release of cytochrome c (mitochondria): 0.01 µM
cytochrome c release by peptide or protein alone (mitochondria): capable of initiating cytochrome c release
cytochrome c release from mitochondria with overexpressed BCL-2, agent alone [2]: failing to release cytochrome c
